From patent US20220362405A1, “COMPOSITIONS AND METHODS FOR TREATING LIVER DISEASE” (UNIVERSITY OF PITTSBURGH-OF THE COMMONWEALTH SYSTEM OF …, priority 2019, published 2022)

Tested on: AKT
Assay: AKT inhibition in normal human hepatocytes (western blot)
Format: cell-based
Conditions: 5 μM MK-2206, 24 hours, freshly isolated normal human hepatocytes, preliminary experiments
Text: Protein extraction and Western blotting. To perform the protein expression analysis, the isolated hepatocytes were divided in two fractions; one fraction was used for total protein extraction, according to standard procedures previously described (Bell A W et al., 2006) and the other fraction was used for nuclear protein isolation. For nuclear protein isolation, between 1×10^7 and 5×10^7 isolated hepatocytes per patient were washed and harvested in 40 mmol/L Tris (pH 7.6), 14 mmol/L NaCl, and 1 mmol/L EDTA, then centrifuged (5 min, 100g). Cell pellets were suspended in 2 mL of hypotonic buffer [10 mmol/L HEPES (pH 7.9), 10 mmol/L NaH2PO4, 1.5 mmol/L MgCl2, 1 mmol/L DTT, 0.5 mmol/L spermidine, and […] with protease and phosphatase inhibitor cocktails (Sigma, St. Louis, Mo.)]. Following 10 minutes of incubation on ice, samples were homogenized in a Dounce homogenizer and then centrifuged (5 min, 800 g). Cell lysis was monitored with trypan blue stain. Supernatants were saved as cytoplasmic extracts. The nuclei pellets were washed two additional times in the same buffer.
Nuclear proteins were extracted in 50-100 μL of hypertonic buffer [30 mmol/L HEPES (pH 7.9), 25% glycerol, 450 mmol/L NaCl, 12 mmol/L MgCl2, 1 mmol/L DTT, and 0.1 mmol/L EDTA with protease and phosphatase inhibitor cocktails (Sigma, St. Louis, Mo.)] for 45 minutes at 4° C. with continuous agitation. Extracts were centrifuged at 30,000 g, and the supernatants were collected and dialyzed for 2 hours against the same solution but containing 150 mmol/L NaCl. Protein concentration was determined by the Bicinchoninic Acid assay (Sigma, St. Louis, Mo.).
Western blot analysis performed according to standard procedures (Natarajan A et al., 2007). The intensity of each protein band was quantitated using National Institutes of Health Image J software. The primary antibodies and its dilutions are listed in the above shown Table 2.
AKT Inhibition in Normal Human Hepatocytes. Normal human hepatocytes (1 million cells/well) were cultured on collagen-coated wells. […]

NC1(c2ccc(-c3nc4ccn5c(=O)[nH]nc5c4cc3-c3ccccc3)cc2)CCC1 [MK-2206]
acetylated nuclear HNF4α expression reduced compared with nontreated controls: 14% | activated AKT(Thr308) expression reduced compared with nontreated controls: 80% | nuclear HNF4α expression reduced compared with nontreated controls: 25%
